A short description of test [1]: Inhibition of MDCK infected Influenza A virus A/Taiwan/3446/2002(H3N2) neuraminidase using MU-NANA as substrate preincubated for 30 mins followed by substrate addition measured after 1 hr by spectrofluorometric method. Format: cell-based.
Test [2] addresses Neuraminidase (Influenza A virus (strain A/Wilson-Smith/1933 H1N1) (Influenza A virus(strain A/WS/1933 H1N1)), UniProt P03470). Put plainly: Inhibition of MDCK infected Influenza A virus A/WSN/33(H1N1) neuraminidase using MU-NANA as substrate preincubated for 30 mins followed by substrate addition measured after 1 hr by spectrofluorometric method. Format: cell-based, Influenza A virus (A/WSN/1933(H1N1)).

Test [3] has the same target. Put plainly: Competitive inhibition of MDCK infected Influenza A virus A/WSN/33(H1N1) neuraminidase using MU-NANA as substrate preincubated for 30 mins followed by substrate addition measured after 1 hr by spectrofluorometric method. Type of test: cell-based, Influenza A virus (A/WSN/1933(H1N1)).
Test [4] can be described thus: Competitive inhibition of MDCK infected Influenza A virus A/Taiwan/3446/2002(H3N2) neuraminidase using MU-NANA as substrate preincubated for 30 mins followed by substrate addition measured after 1 hr by spectrofluorometric method.

Our source for the IC50 values is ChEMBL document CHEMBL3871267, “Design and synthesis of 1,2,3-triazole-containing N-acyl zanamivir analogs as potent neuraminidase inhibitors” (Eur J Med Chem, 2016).

Sequence of Neuraminidase (Influenza A virus (strain A/Wilson-Smith/1933 H1N1) (Influenza A virus(strain A/WS/1933 H1N1)), UniProt P03470) (P03470 whole entry): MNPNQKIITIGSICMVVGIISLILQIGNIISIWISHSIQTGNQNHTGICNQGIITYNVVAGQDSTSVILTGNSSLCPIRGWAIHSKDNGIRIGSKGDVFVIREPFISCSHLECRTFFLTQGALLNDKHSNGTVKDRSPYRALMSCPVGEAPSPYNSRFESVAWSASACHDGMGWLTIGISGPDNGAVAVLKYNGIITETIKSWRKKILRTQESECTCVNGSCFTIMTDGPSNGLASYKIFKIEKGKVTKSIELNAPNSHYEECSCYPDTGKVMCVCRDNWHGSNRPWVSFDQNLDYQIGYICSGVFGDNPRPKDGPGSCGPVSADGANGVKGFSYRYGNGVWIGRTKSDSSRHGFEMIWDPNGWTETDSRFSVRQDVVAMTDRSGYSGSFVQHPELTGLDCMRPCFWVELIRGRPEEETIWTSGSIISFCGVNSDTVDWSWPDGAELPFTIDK

The IC50 is the point on the concentration scale where inhibition reaches its midpoint. Turning to `CC(=O)N[C@H]1[C@H]([C@H](O)[C@H](O)CO)OC(C(=O)O)=C[C@@H]1NC(=N)NC(=O)Cn1cc(-c2cccc(N)c2)nn1`, the concentration for half-maximal inhibition (IC50) in test [1] was found to be 11 nM; in test [2], 10 nM.
On to `CC(=O)N[C@H]1[C@H]([C@H](O)[C@H](O)CO)OC(C(=O)O)=C[C@@H]1NC(=N)NC(=O)Cn1cc(-c2ccc(C)cc2)nn1`, for which the concentration for half-maximal inhibition (IC50) in test [1] was 17 nM; in test [2] it was 14 nM.
For `COc1ccc(-c2cn(CC(=O)NC(=N)N[C@H]3C=C(C(=O)O)O[C@@H]([C@H](O)[C@H](O)CO)[C@@H]3NC(C)=O)nn2)cc1`, the IC50 came out at 17 nM in test [1] and 12 nM in test [2].
For the compound `CC(=O)N[C@H]1[C@H]([C@H](O)[C@H](O)CO)OC(C(=O)O)=C[C@@H]1NC(=N)NC(=O)Cn1cc(C2=CCCCC2)nn1`, the figures for the IC50 in test [1] and in test [2] were 17 nM and 15 nM, respectively.
Turning to `CC(=O)N[C@H]1[C@H]([C@H](O)[C@H](O)CO)OC(C(=O)O)=C[C@@H]1NC(=N)NC(=O)Cn1cc(-c2ccc(N)cc2)nn1`, the half-inhibitory concentration (IC50) in test [1] was 13 nM; in test [2] it was 12 nM.
Take `CCOC(=O)c1cccc(-c2cn(CC(=O)NC(=N)N[C@H]3C=C(C(=O)O)O[C@@H]([C@H](O)[C@H](O)CO)[C@@H]3NC(C)=O)nn2)c1`: the IC50 in test [1] stood at 19 nM; in test [2] it was 13 nM.
Consider `CC(=O)N[C@H]1[C@H]([C@H](O)[C@H](O)CO)OC(C(=O)O)=C[C@@H]1NC(=N)NC(=O)Cn1cc(-c2cccc(Cl)c2)nn1`, for which the figures for the IC50 in test [1] and in test [2] were 8 nM and 9 nM, respectively.
With `CC(=O)N[C@H]1[C@H]([C@H](O)[C@H](O)CO)OC(C(=O)O)=C[C@@H]1NC(=N)NC(=O)Cn1cc(C2CCCCC2)nn1`, the IC50 in test [1] stood at 2.9 nM; in test [2] it was 2.3 nM.
In the case of `CC(=O)N[C@H]1[C@H]([C@H](O)[C@H](O)CO)OC(C(=O)O)=C[C@@H]1NC(=N)NC(=O)CSc1ccc2ccccc2c1`, the IC50 in test [1] was 25 nM; in test [2], 20 nM.
In the case of `COc1ccc2cc(-c3cn(CC(=O)NC(=N)N[C@H]4C=C(C(=O)O)O[C@@H]([C@H](O)[C@H](O)CO)[C@@H]4NC(C)=O)nn3)ccc2c1`, the results for the IC50 in test [1] and in test [2] were 28 nM and 31 nM, respectively.
Regarding `CC(=O)N[C@H]1[C@H]([C@H](O)[C@H](O)CO)OC(C(=O)O)=C[C@@H]1NC(=N)NC(=O)Cn1cc(-c2cccc(F)c2)nn1`, the IC50 in test [1] was 17 nM; in test [2], 14 nM.
Take `CC(=O)N[C@H]1C([C@H](O)[C@H](O)CO)OC(C(=O)O)=C[C@@H]1NC(=N)NC(=O)Cn1cc(-c2ccccc2)nn1` (stereo partly drawn): the IC50 in test [3] worked out at 9.9 nM; in test [4], 8 nM.
Consider `CC(=O)N[C@H]1[C@H]([C@H](O)[C@H](O)CO)OC(C(=O)O)=C[C@@H]1NC(=N)NC(=O)Cn1cc(-c2ccc(Cl)cc2)nn1`, for which the IC50 in test [1] was 14 nM; in test [2] it was 15 nM.
Regarding `CC(=O)N[C@H]1C([C@H](O)[C@H](O)CO)OC(C(=O)O)=C[C@@H]1NC(=N)NC(=O)CCCCn1cc(-c2ccccc2)nn1` (stereo partly drawn), the half-maximal inhibitory concentration (IC50) in test [3] turned out to be 169 nM; in test [4], 110 nM.
Taken in the same sequence, the figures for `CC(=O)N[C@H]1C([C@H](O)[C@H](O)CO)OC(C(=O)O)=C[C@@H]1NC(=N)NC(=O)CCCn1cc(-c2ccccc2)nn1` (stereo partly drawn) were 238 nM and 228 nM.
As to `CC(=O)N[C@H]1C([C@H](O)[C@H](O)CO)OC(C(=O)O)=C[C@@H]1NC(=N)NC(=O)CCn1cc(-c2ccccc2)nn1` (stereo partly drawn), the IC50 in test [3] was 146 nM; in test [4], 135 nM.
For `CC(=O)N[C@H]1[C@H]([C@H](O)[C@H](O)CO)OC(C(=O)O)=C[C@@H]1NC(=N)NC(=O)Cn1cc(-c2ccccc2N)nn1`, the figures for the IC50 in test [1] and in test [2] were 13 nM and 12 nM, respectively.
For `COc1ccccc1-c1cn(CC(=O)NC(=N)N[C@H]2C=C(C(=O)O)O[C@@H]([C@H](O)[C@H](O)CO)[C@@H]2NC(C)=O)nn1`, the IC50 in test [1] was 10 nM; in test [2], 8 nM.
As for `CC(=O)N[C@H]1[C@H]([C@H](O)[C@H](O)CO)OC(C(=O)O)=C[C@@H]1NC(=N)NC(=O)Cn1cc(-c2ccc(F)cc2)nn1`, the 50% inhibitory concentration (IC50) in test [1] was 27 nM; in test [2] it was 29 nM.
